US8962608B2, “Cycloalkylnitrile pyrazole carboxamides as janus kinase inhibitors” (Merck Sharp & Dohme Corp., priority 2011, dated 2015)

Legend:
[1] = target: JAK2 (recombinant purified GST-tagged catalytic domain) (Homo sapiens (Human), UniProt O60674); assay: biochemical;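 note: biochemical JAK kinase assay with HTRF detection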
[2] = target: JAK1 (recombinant purified GST-tagged catalytic domain) (Homo sapiens (Human), UniProt P23458); assay: biochemical;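 note: biochemical assay with HTRF read-out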
Chain of JAK1 (recombinant purified GST-tagged catalytic domain) (P23458 875-1153): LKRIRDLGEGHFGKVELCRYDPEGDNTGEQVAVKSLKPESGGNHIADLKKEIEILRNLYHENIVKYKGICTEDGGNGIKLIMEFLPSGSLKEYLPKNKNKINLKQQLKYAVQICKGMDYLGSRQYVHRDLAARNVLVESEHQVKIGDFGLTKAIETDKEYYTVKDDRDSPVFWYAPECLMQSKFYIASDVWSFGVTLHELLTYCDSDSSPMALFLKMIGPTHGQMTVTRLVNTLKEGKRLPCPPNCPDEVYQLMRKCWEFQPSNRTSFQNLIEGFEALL

Chain of JAK2 (recombinant purified GST-tagged catalytic domain) (O60674 849-1124): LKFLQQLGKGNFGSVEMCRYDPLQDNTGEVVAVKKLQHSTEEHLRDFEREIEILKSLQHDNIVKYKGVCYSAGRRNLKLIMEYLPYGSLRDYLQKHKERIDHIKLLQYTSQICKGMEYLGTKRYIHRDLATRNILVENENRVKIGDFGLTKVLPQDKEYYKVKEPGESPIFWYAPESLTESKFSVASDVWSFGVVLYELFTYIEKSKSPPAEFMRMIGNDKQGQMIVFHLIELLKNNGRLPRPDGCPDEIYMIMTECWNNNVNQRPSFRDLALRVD

Structure (SMILES)	IC50 [1]	IC50 [2]
N#C[C@H]1CCCCC1n1cc(C(N)=O)c(Nc2ccc(S(=O)(=O)CF)cc2)n1 (mixture of isomers) [Example 17-65, 1-[(1S,2S and 1R,2R)-2-cyanocyclohexyl]-3-({4-[(fluoromethyl)sulfonyl]phenyl}amino)-1H-pyrazole-4-carboxamide]	2 nM	0.16 nM
N#C[C@H]1C[C@@H](NCC(F)F)CC[C@@H]1n1cc(C(N)=O)c(Nc2ccc(Cl)c(F)c2)n1 (single isomer, unassigned) [Example 28-90, 3-[(4-chloro-3-fluorophenyl)amino]-1-{(1S,2S,4S or 1R,2R,4R)-2-cyano-4-[(2,2-difluoroethyl)amino]cyclohexyl}-1H-pyrazole-4-carboxamide]	35 nM	4 nM
CC(C)(O)CN[C@H]1CCC(n2cc(C(N)=O)c(Nc3ccc(Cl)cc3)n2)[C@@H](C#N)C1 (single isomer, unassigned) [Example 28-221, 3-[(4-chlorophenyl)amino]-1-{(1S,2S,4S or 1R,2R,4R)-2-cyano-4-[(2-hydroxy-2-methylpropyl)amino]cyclo-hexyl}-1H-pyrazole-4-carboxamide]	42 nM	2 nM
N#C[C@@H]1C[C@@H](NC2CCC2)CC[C@H]1n1cc(C(N)=O)c(Nc2ccc(C(F)(F)F)cc2)n1 (single isomer, unassigned) [Example 30-18, 1-[(1R,2R,4S or 1S,2S,4R)-2-cyano-4-(cyclobutyl-amino)cyclohexyl]-3-{[4-(trifluoromethyl)phenyl]amino}-1H-pyrazole-4-carboxamide]	136 nM	2 nM
Cn1cc(-c2cc(Nc3nn([C@H]4CCCC[C@@H]4C#N)cc3C(N)=O)ccn2)cn1 (racemic) [Example 17-22, 1-[(1S,2S and 1R,2R)-2-cyanocyclohexyl]-3-{[2-(1-methyl-1H-pyrazol-4-yl)pyridin-4-yl]amino}-1H-pyrazole-4-carboxamide]	60 nM	3 nM
N#C[C@H]1CC[C@@H](O)CC1n1cc(C(N)=O)c(Nc2ccccc2)n1 (mixture of isomers) [Example 2-13, 1-[(1S,2S,5R and 1R,2R,5S)-2-cyano-5-hydroxycyclohexyl]-3-(phenylamino)-1H-pyrazole-4-carboxamide]	185 nM	27 nM
N#C[C@H]1C[C@@](O)(C2CC2)CC[C@@H]1n1cc(C(N)=O)c(Nc2ccc(Cl)c(F)c2)n1 (single isomer, unassigned) [Example 32-1, 3-[(4-Chloro-3-fluorophenyl)amino]-1-[(1S,2S,4S or 1R,2R,4R)-2-cyano-4-cyclopropyl-4-hydroxycyclohexyl]-1H-pyrazole-4-carboxamide]	59 nM	13 nM
N#C[C@H]1C[C@@H](N2CCC23COC3)CC[C@@H]1n1cc(C(N)=O)c(Nc2ccc(Cl)cc2)n1 (single isomer, unassigned) [Example 28-146, 3-[(4-chlorophenyl)amino]-1-[(1S,2S,4S or 1R,2R,4R)-2-cyano-4-(6-oxa-1-azaspiro[3.3]hept-1-yl)cyclohexyl]-1H-pyrazole-4-carboxamide]	4 nM	1 nM
N#C[C@H]1CCCC[C@@H]1n1cc(C(N)=O)c(Nc2ccc(S(=O)(=O)NCc3ccccc3)cc2)n1 (single isomer, unassigned) [Example 17-83, 3-{[4-(benzylsulfamoyl)phenyl]amino}-1-[(1R,2R or 1S,2S)-2-cyanocyclohexyl]-1H-pyrazole-4-carboxamide]	0.9 nM	0.2 nM
Cc1cccc(C)c1NS(=O)(=O)c1ccc(Nc2nn([C@H]3CCCC[C@@H]3C#N)cc2C(N)=O)cc1 (single isomer, unassigned) [Example 17-88, 1-[(1R,2R or 1S,2S)-2-cyanocyclohexyl]-3-({4-[(2,6-dimethylphenyl)sulfamoyl]phenyl}amino)-1H-pyrazole-4-carboxamide]	9 nM	1 nM
N#C[C@@H]1CCCC[C@H]1n1cc(C(N)=O)c(Nc2ccc(S(=O)(=O)NCC3CC3)cc2)n1 (single isomer, unassigned) [Example 17-66, 1-[(1R,2R or 1S,2S)-2-cyanocyclohexyl]-3-({4-[(cyclopropylmethyl)sulfamoyl]phenyl}amino)-1H-pyrazole-4-carboxamide]	1 nM	0.33 nM
N#C[C@H]1CCCC[C@@H]1n1cc(C(N)=O)c(Nc2ccc(S(=O)(=O)NCc3ccc(C(F)(F)F)cc3)cc2)n1 (single isomer, unassigned) [Example 17-96, 1-[(1R,2R or 1S,2S)-2-cyanocyclohexyl]-3-[(4-{[4-(trifluoromethyl)benzyl]sulfamoyl}phenyl)amino]-1H-pyrazole-4-carboxamide]	7 nM	2 nM
CN(C1COC1)[C@H]1CC[C@@H](n2cc(C(N)=O)c(Nc3ccc(C(F)(F)F)cc3)n2)[C@H](C#N)C1 (single isomer, unassigned) [Example 30-1, 1-{(1R,2R,4S or 1S,2S,4R)-2-Cyano-4-[methyl(oxetan-3-yl)amino]cyclohexyl}-3-{[4-(trifluoromethyl)phenyl]amino}-1H-pyrazole-4-carboxamide]	106 nM	9 nM
N#C[C@H]1C[C@@H](N[C@H](C2CC2)C(F)(F)F)CC[C@@H]1n1cc(C(N)=O)c(Nc2ccc(C(F)(F)F)cc2)n1 (single isomer, unassigned) [Example 28-192, 1-[(1S,2S,4S or 1R,2R,4R)-2-cyano-4-{[(1S)-1-cyclopropyl-2,2,2-trifluoroethyl]amino}cyclo-hexyl]-3-{[4-(trifluoromethyl)phenyl]amino}-1H-pyrazole-4-carboxamide]	67 nM	2 nM
C[C@H](N[C@H]1CC[C@H](n2cc(C(N)=O)c(Nc3ccc(Cl)c(F)c3)n2)[C@@H](C#N)C1)C1CC1 (single isomer, unassigned) [Example 28-71, 3-[(4-chloro-3-fluorophenyl)amino]-1-[(1S,2S,4S or 1R,2R,4R)-2-cyano-4-{[(1S or 1R)-1-cyclopropylethyl]amino}cyclo-hexyl]-1H-pyrazole-4-carboxamide]	97 nM	2 nM
CN(C)S(=O)(=O)CCNC1CC[C@H](n2cc(C(N)=O)c(Nc3ccc(S(=O)(=O)C(F)(F)F)cc3)n2)[C@@H](C#N)C1 (single isomer, unassigned) [Example 28-154, 1-[(1S,2S or 1R,2R)-2-cyano-4-{[2-(dimethylsulfamoyl)ethyl]a-mino}cyclohexyl]-3-({4-[(trifluoromethyl)sulfonyl]phen-yl}amino)-1H-pyrazole-4-carboxamide]	13 nM	1 nM
N#C[C@H]1C[C@@H](C(=O)NC2CC2)CC[C@@H]1n1cc(C(N)=O)c(Nc2ccc(Cl)cc2)n1 (single isomer, unassigned) [Example 35-23, 3-[(4-chlorophenyl)amino]-1-[(1S,2S,4S or 1R,2R,4R)-2-cyano-4-(cyclopropylcarbamoyl)cyclohexyl]-1H-pyrazole-4-carboxamide]	295 nM	37 nM
N#C[C@H]1C[C@@H](CF)CC[C@@H]1n1cc(C(N)=O)c(Nc2ccnc(F)c2)n1 (racemic) [Example 37, 1-[(1S,2S,4S and 1R,2R,4R)-2-Cyano-4-(fluoromethyl)cyclohexyl]-3-[(2-fluoropyridin-4-yl)amino]-1H-pyrazole-4-carboxamide]	13 nM	0.8 nM
